Test results published in US20260049076A1, “Tertiary Amine Substituted Bicyclic Compounds Useful as T Cell Activators” (BRISTOL-MYERS SQUIBB COMPANY, priority 2022, published 2026).

Assays:
human DGKα = biological target: T1, human DGKα (Homo sapiens, UniProt P23743); assay: In vitro DGK inhibition assay, DGKα liposome (LIPGLO) assay; type: biochemical; conditions: read-out: Enzyme Inhibition DGKalpha IC50
T1 construct: TVMV protease cleavage site (C); Hexa-His (C); made in house; host or cells: Sf9 insect cells (baculovirus)
Protocol: (§1) The DGKα and DGKζ reactions were performed using either extruded liposome (DGKα and DGKζ LIPGLO assays) or detergent/lipid micelle substrate (DGKα and DGKζ assays). The reactions were carried out in 50 mM MOPS pH 7.5, 100 mM NaCl, 10 mM MgCl2, 1 μM CaCl2, and 1 mM DTT (assay buffer). The reactions using a detergent/lipid micelle substrate also contained 50 mM octyl B-D-glucopyranoside. The lipid substrate concentrations were 11 mM PS and 1 mM DAG for the detergent/lipid micelle reactions. The lipid substrate concentrations were 2 mM PS, 0.25 mM DAG, and 2.75 mM PC for the extruded liposome reactions (5 mM total lipid). The reactions were carried out in 150 μM ATP The enzyme concentrations for the DGKα and DGKζ were 5 nM
(§2) The compound inhibition studies were carried out as follows: 25 nL (ADPGLO assay) or 50 nL (LIPGLO assay) droplets of each test compound (top concentration 10 mM with 11 point, 3-fold dilution series for each compound) solubilized in DMSO were transferred to wells of a white 1536 well plate (Corning 3725). A 5 mL enzyme/lipid substrate solution at 2× final reaction concentration was prepared by combining 2.5 mL 4× enzyme solution (20 nM DGKα, or DGKζ (prepared as described below) in assay buffer) and 2.5 mL of either 4× liposome or 4× detergent/lipid micelle solution (compositions described below) and incubated at room temperature for 10 minutes. Next, 1 μL 2× enzyme/lipid substrate solution was added to wells containing the test compound and reactions were initiated with the addition of 1 μL 300 uM ATP. The reactions were allowed to proceed for 2 hr (ADPGLO assay) or 1 hr (LIPGLO assay), after which 2 μL Glo Reagent (Promega V9101) was added and incubated for 40 minutes. Next, 4 μL Kinase Detection Reagent was added and incubated for 30 minutes. Luminescence was recorded using an EnVision microplate reader. […] The compounds were evaluated at 11 concentrations to determine IC50.
(§3) The lipid composition was 5 mol % DAG (Avanti 8008110), 40 mol % PS (Avanti 840035P), and 55 mol % PC (Avanti 850457) at a total lipid concentration of 7-8 mg/mL for the liposome solution. The PC, DAG, and PS were dissolved in chloroform, combined, and dried in vacuo to a thin film. The lipids were hydrated to 20 mM in 50 mM MOPS pH 7.5, 100 mM NaCl, 5 mM MgCl2, and were freeze-thawed five times. The lipid suspension was extruded through a 100 nm polycarbonate filter 10-12 times. […] The liposome preparation was stored at 4° C. for as long as four weeks.
as §3, with “15.2” for “7-8”, “the 4×” for “the”, “eleven” for “10-12”
(§4) Human DGK-alpha-TVMV-His-pFBgate and human DGK-zeta-transcript variant-2-TVMV-His-pFBgate baculovirus samples were generated using the Bac-to-Bac baculovirus expression system (Invitrogen) according to the manufacturer's protocol. […] Baculovirus amplification was achieved using infected Sf9 cells at 1:1500 virus/cell ratios, and grown for 65 hours at 27° C. post-transfection.
(§5) The expression scale up for each protein was carried out in the Cellbag 50L WAVE-Bioreactor System 20/50 from GE Healthcare Bioscience. 12 L of 2×10^6 cells/mL Sf9 cells (Expression System, Davis, CA) grown in ESF921 insect medium (Expression System) were infected with virus stock at 1:200 virus/cell ratios, and grown for 66-68 hours at 27° C. post-infection.

human DGKζ = biological target: T2, human DGKζ (Homo sapiens, UniProt Q13574); assay: In vitro DGK inhibition assay, DGKζ liposome (LIPGLO) assay; type: biochemical; conditions: read-out: Enzyme Inhibition DGKzeta IC50
T2 construct: TVMV protease cleavage site (C); Hexa-His (C); made in house; host or cells: Sf9 insect cells (baculovirus)
Protocol: as §1, §2, §3
as §3, with “15.2” for “7-8”, “the 4×” for “the”, “eleven” for “10-12”
as §4, §5

T1 sequence (P23743 with tags, fused parts or gaps): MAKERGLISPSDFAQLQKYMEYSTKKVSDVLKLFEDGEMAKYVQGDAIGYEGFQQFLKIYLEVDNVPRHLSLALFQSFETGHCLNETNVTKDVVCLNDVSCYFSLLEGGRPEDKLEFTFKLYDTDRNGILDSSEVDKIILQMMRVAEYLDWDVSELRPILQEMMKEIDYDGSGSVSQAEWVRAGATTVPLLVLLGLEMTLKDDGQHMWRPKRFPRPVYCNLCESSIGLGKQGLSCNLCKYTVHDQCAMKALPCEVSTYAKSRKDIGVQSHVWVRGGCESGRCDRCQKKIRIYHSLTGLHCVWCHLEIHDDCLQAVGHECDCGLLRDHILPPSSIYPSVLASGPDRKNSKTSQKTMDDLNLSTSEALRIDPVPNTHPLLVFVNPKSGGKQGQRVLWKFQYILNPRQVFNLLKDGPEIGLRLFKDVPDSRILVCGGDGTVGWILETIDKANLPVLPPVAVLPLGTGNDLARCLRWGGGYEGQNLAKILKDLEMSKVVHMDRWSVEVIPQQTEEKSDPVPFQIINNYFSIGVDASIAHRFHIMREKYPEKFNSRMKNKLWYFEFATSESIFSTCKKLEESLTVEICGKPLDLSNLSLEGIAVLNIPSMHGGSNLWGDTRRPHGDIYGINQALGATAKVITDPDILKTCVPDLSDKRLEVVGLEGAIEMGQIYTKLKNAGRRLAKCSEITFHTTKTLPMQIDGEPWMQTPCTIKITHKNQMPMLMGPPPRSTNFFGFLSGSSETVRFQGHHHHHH
T2 sequence (Q13574 with tags, fused parts or gaps isoform Q13574-4): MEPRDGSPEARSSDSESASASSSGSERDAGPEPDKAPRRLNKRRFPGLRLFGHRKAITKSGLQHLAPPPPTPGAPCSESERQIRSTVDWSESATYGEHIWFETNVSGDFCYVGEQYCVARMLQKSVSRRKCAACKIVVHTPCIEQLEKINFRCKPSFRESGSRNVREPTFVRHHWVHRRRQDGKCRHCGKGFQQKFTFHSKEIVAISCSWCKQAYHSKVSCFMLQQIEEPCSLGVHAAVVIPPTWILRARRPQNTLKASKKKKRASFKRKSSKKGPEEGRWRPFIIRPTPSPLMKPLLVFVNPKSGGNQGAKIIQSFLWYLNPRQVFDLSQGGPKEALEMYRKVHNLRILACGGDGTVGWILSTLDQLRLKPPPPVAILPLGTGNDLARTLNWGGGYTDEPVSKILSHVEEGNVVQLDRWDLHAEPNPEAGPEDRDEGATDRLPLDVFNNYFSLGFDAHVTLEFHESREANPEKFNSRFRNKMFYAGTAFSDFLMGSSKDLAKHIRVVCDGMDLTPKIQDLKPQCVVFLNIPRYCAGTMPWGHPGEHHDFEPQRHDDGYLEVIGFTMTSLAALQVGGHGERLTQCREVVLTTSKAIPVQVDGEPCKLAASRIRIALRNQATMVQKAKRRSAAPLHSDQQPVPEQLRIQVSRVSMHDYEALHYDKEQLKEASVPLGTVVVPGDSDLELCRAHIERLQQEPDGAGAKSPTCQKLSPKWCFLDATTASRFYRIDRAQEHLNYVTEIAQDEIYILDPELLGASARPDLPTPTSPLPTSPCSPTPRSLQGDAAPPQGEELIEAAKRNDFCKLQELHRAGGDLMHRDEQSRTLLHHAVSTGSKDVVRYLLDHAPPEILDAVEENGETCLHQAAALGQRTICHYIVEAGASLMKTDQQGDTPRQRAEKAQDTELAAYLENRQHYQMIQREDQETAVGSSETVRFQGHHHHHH

Structure (SMILES)	IC50 (human DGKα) [µM]	IC50 (human DGKζ) [µM]
CN(c1nc(=O)n(C)c2ccc(Cl)nc12)C1CCCCC1 [Example 30, 6-chloro-4-(cyclohexyl(methyl)amino)-1-methylpyrido[3,2-d]pyrimidin-2(1H)-one]	0.14	73
CCCN(CC1CC1)c1nc(=O)n(C)c2ccc(Cl)nc12 [Example 31, 6-chloro-4-((cyclopropylmethyl)(propyl)amino)-1-methylpyrido[3,2-d]pyrimidin-2(1H)-one]	1	32
CCN(c1ccc(OC)cc1)c1cc(=O)n(C)c2ccc(C#N)nc12 [Example 34, 8-(ethyl(4-methoxyphenyl)amino)-5-methyl-6-oxo-5,6-dihydro-1,5-naphthyridine-2-carbonitrile]	6.5	2.5
COc1ccc(N(CC2CC2)c2cc(=O)n(C)c3ccc(C#N)nc23)cc1 [Example 36, 8-((cyclopropylmethyl)(4-methoxyphenyl)amino)-5-methyl-6-oxo-5,6-dihydro-1,5-naphthyridine-2-carbonitrile]	0.89	0.8
Cn1c(=O)cc(N(CC2CC2)c2ccc(C3CC3)cc2)c2nc(C#N)ccc21 [Example 40, 8-((cyclopropylmethyl)(4-cyclopropylphenyl)amino)-5-methyl-6-oxo-5,6-dihydro-1,5-naphthyridine-2-carbonitrile]	2.7	0.19
Cn1c(=O)cc(N(CC2CC2)c2cccc(OC(F)(F)F)c2)c2nc(C#N)ccc21 [Example 43, 8-((cyclopropylmethyl)(3-(trifluoromethoxy)phenyl)amino)-5-methyl-6-oxo-5,6-dihydro-1,5-naphthyridine-2-carbonitrile]	1.1	26
Cn1c(=O)cc(N(CC2CC2)c2cccc(C(F)(F)F)c2)c2nc(C#N)ccc21 [Example 47, 8-((cyclopropylmethyl)(3-(trifluoromethyl)phenyl)amino)-5-methyl-6-oxo-5,6-dihydro-1,5-naphthyridine-2-carbonitrile]	0.2	5.1
Cc1ccccc1N(CC1CC1)c1cc(=O)n(C)c2ccc(C#N)nc12 [Example 49, 8-((cyclopropylmethyl)(o-tolyl)amino)-5-methyl-6-oxo-5,6-dihydro-1,5-naphthyridine-2-carbonitrile]	4.8	56
Cn1c(=O)cc(N(CC2CC2)c2ccc(OC(F)(F)F)cc2Cl)c2nc(C#N)ccc21 [Example 50, 8-((2-chloro-4-(trifluoromethoxy)phenyl)(cyclopropylmethyl)amino)-5-methyl-6-oxo-5,6-dihydro-1,5-naphthyridine-2-carbonitrile]	4.8	2.5
COc1cc(N(CC2CC2)c2cc(=O)n(C)c3ccc(C#N)nc23)ccc1F [Example 55, 8-((cyclopropylmethyl)(4-fluoro-3-methoxyphenyl)amino)-5-methyl-6-oxo-5,6-dihydro-1,5-naphthyridine-2-carbonitrile]	7.7	2.2
Cn1c(=O)nc(N(CC2CC2)c2ccc(C3CC3)cc2)c2nc(Cl)ccc21 [Example 58, 6-chloro-4-((cyclopropylmethyl) (4-cyclopropylphenyl)amino)-1-methylpyrido[3,2-d]pyrimidin-2(1H)-one]	3.8	1
COCc1ccccc1N(CC1CC1)c1cc(=O)n(C)c2ccc(C#N)nc12 [Example 67, 8-((cyclopropylmethyl)(2-(methoxymethyl)phenyl)amino)-5-methyl-6-oxo-5,6-dihydro-1,5-naphthyridine-2-carbonitrile]	4.5	21
Cn1c(=O)cc(N(CC2CC2)c2cccc(-c3ccccc3)c2)c2nc(C#N)ccc21 [Example 70, 8-([1,1′-biphenyl]-3-yl(cyclopropylmethyl)amino)-5-methyl-6-oxo-5,6-dihydro-1,5-naphthyridine-2-carbonitrile]	0.17	27

Further lines, results first:

IC50 (human DGKα) [µM]	IC50 (human DGKζ) [µM]	Structure (SMILES)
6.1	4.1	CN(c1ccc(C(F)(F)F)cc1)c1cc(=O)n(C)c2ccc(C#N)nc12 [Example 33, 5-methyl-8-(methyl(4-(trifluoromethyl)phenyl)amino)-6-oxo-5,6-dihydro-1,5-naphthyridine-2-carbonitrile]
0.22	3	Cn1c(=O)cc(N(CC2CC2)c2ccc(F)cc2)c2nc(C#N)ccc21 [Example 35, 8-((cyclopropylmethyl)(4-fluorophenyl)amino)-5-methyl-6-oxo-5,6-dihydro-1,5-naphthyridine-2-carbonitrile]
8.4	3	Cn1c(=O)cc(N(CC2CC2)c2ccc(OC(F)(F)F)cc2)c2nc(C#N)ccc21 [Example 41, 8-((cyclopropylmethyl)(4-(trifluoromethoxy)phenyl)amino)-5-methyl-6-oxo-5,6-dihydro-1,5-naphthyridine-2-carbonitrile]
4.4	1.1	Cn1c(=O)cc(N(CC2CC2)c2ccc(C(F)(F)F)cc2)c2nc(C#N)ccc21 [Example 42, 8-((cyclopropylmethyl)(4-(trifluoromethyl)phenyl)amino)-5-methyl-6-oxo-5,6-dihydro-1,5-naphthyridine-2-carbonitrile]
4.5	12	Cn1c(=O)cc(N(Cc2ccccc2)CC2CC2)c2nc(C#N)ccc21 [Example 52, 8-(benzyl(cyclopropylmethyl)amino)-5-methyl-6-oxo-5,6-dihydro-1,5-naphthyridine-2-carbonitrile]
3.9	1.3	Cn1c(=O)cc(N(CC2CC2)c2ccc(-n3cccc3)cc2)c2nc(C#N)ccc21 [Example 54, 8-((4-(1H-pyrrol-1-yl)phenyl) (cyclopropylmethyl)amino)-5-methyl-6-oxo-5,6-dihydro-1,5-naphthyridine-2-carbonitrile]
4.2	0.15	Cn1c(=O)nc(N(CC2CC2)c2ccc(C3CC3)cc2)c2nc(C#N)ccc21 [Example 57, 4-((cyclopropylmethyl)(4-cyclopropylphenyl)amino)-1-methyl-2-oxo-1,2-dihydropyrido[3,2-d]pyrimidine-6-carbonitrile]
> 37	6.6	Cn1c(=O)c(C#N)c(N(CC2CC2)c2ccc(C3CC3)cc2)c2nc(C#N)ccc21 [Example 59, 8-((cyclopropylmethyl)(4-cyclopropylphenyl)amino)-5-methyl-6-oxo-5,6-dihydro-1,5-naphthyridine-2,7-dicarbonitrile]
> 37	1.4	Cn1c(=O)c(C#N)c(N(CC2CC2)c2ccc(C3CC3)cc2)c2ncccc21 [Example 60, 4-((cyclopropylmethyl)(4-cyclopropylphenyl)amino)-1-methyl-2-oxo-1,2-dihydro-1,5-naphthyridine-3-carbonitrile]
5.5	7.5	Cc1ccc(-c2ccc(N(CC3CC3)c3cc(=O)n(C)c4ccc(C#N)nc34)cc2)cc1 [Example 69, 8-((cyclopropylmethyl)(4′-methyl-[1,1′-biphenyl]-4-yl)amino)-5-methyl-6-oxo-5,6-dihydro-1,5-naphthyridine-2-carbonitrile]
